One assay relates to ATPase domain of HSP70. The following applies: MAMELAK & LINGWOOD, J. Biol. Chem. 2001; cited from earlier work.
The subject of another assay is B16F10 melanoma cells. Kind of assay: Tumor growth of aptamer-expressing B16F10 cells injected subcutaneously into syngeneic mice. Format: in vivo, C57/B16 mice. The following applies: mice bearing control tumors (wt B16F10 and B16F10-A0), cisplatin 10 mg/kg. An excerpt:
To determine whether the chemosensitizing effect of A8 and A18 aptamers observed in vitro was also detected in vivo, mouse B16F10 melanoma cells were stably transfected with the aptamer expression vectors (A8, A18 and, as a control, A0). Stably transfected cells were selected using G418 (SIGMA) according to the manufacturer's instruction.
Exponentially growing B16F10 cells (wild type and aptamers-transfected) were harvested, washed in PBS, and resuspended in RPMI medium without foetal bovine serum (FBS) to a concentration of 2x10^5 B16F10 cells in 100 µl. B16F10 cells were then injected subcutaneously into the right side of syngeneic C57/B16 mice (9 mice/group). Next, some mice bearing B16F10-A0, B16F10-A8 or B16F10-A18 tumors were treated with cisplatin (10 mg/kg), given intraperitonealy as a single dose at day 6 after tumor cells injection. Tumor volume was evaluated for all mice every two days, using a caliper to measure two perpendicular diameters.

For 3'-sulfogalactosyl ceramide [SGC], the “binding to the ATPase domain of HSP70” value in the assay on ATPase domain of HSP70 was “known to bind”.

Turning to 3'-sulfogalactosylglycerolipid [SGG], the “binding to the ATPase domain of HSP70” value in the assay with ATPase domain of HSP70 was “known to bind”.

As to `N.N.[Cl][Pt][Cl]` [cisplatin], the “effect of cisplatin treatment on the size of the tumors” value in the assay with B16F10 melanoma cells is on record as “slightly reduced the size of the tumors”.

The record behind these values is patent EP2050758A1, “New polypeptides and uses thereof in cancer therapy” (INSTITUT NATIONAL DE LA SANTE ET DE LA RECHERCHE MEDICALE …, priority 2007, dated 2009).
